Laboratory results taken from PubChem BioAssay AID248 (DTP/NCI, 2004).
Values joined by “and” are separate entries in the source; they are usually repeats but may differ in a detail not shown here. Equal entries are not always repeated. Toxic doses and inconclusive results are not listed. Rule as the data show it: active = T/C of 150% or more; inactive = T/C below 125%.

Tested on: L1210 leukemia ip in BDF1 mice, survival T/C
Assay: NCI In Vivo Anticancer Drug Screen. Data for tumor model L1210 Leukemia (intraperitoneal) in B6D2F1 (BDF1) mice
Conditions: endpoint: mean survival time, higher = longer survival
In short: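 Ratio derived from survival: compound-dosed mice over vehicle-dosed mice, all bearing a transplantable tumor.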

[1] = dose: 100.0 mg/kg/injection, schedule: Q01DX009 (ip), vehicle: Klucel (hydroxypropylcellulose) (HPC)
[2] = dose: 100.0 mg/kg/injection, schedule: Q04DX003 (ip), vehicle: Klucel (hydroxypropylcellulose) (HPC)
[3] = dose: 200.0 mg/kg/injection, schedule: Q01DX009 (ip), vehicle: Klucel (hydroxypropylcellulose) (HPC)
[4] = dose: 200.0 mg/kg/injection, schedule: Q04DX003 (ip), vehicle: Klucel (hydroxypropylcellulose) (HPC)
[5] = dose: 400.0 mg/kg/injection, schedule: Q01DX009 (ip), vehicle: Klucel (hydroxypropylcellulose) (HPC)
[6] = dose: 400.0 mg/kg/injection, schedule: Q04DX003 (ip), vehicle: Klucel (hydroxypropylcellulose) (HPC)
[7] = dose: 100.0 mg/kg/injection, schedule: Q01DX001 (ip), vehicle: saline
[8] = dose: 200.0 mg/kg/injection, schedule: Q01DX001 (ip), vehicle: saline
[9] = dose: 400.0 mg/kg/injection, schedule: Q01DX001 (ip), vehicle: saline
[10] = dose: 100.0 mg/kg/injection, schedule: Q01DX001 (ip), vehicle: Klucel (hydroxypropylcellulose) (HPC)
[11] = dose: 200.0 mg/kg/injection, schedule: Q01DX001 (ip), vehicle: Klucel (hydroxypropylcellulose) (HPC)
[12] = dose: 100.0 mg/kg/injection, schedule: Q01DX009 (ip), vehicle: saline
[13] = dose: 200.0 mg/kg/injection, schedule: Q01DX009 (ip), vehicle: saline
[14] = dose: 100.0 mg/kg/injection, schedule: Q04DX002 (ip), vehicle: Klucel (hydroxypropylcellulose) (HPC)
[15] = dose: 200.0 mg/kg/injection, schedule: Q04DX002 (ip), vehicle: Klucel (hydroxypropylcellulose) (HPC)
[16] = dose: 100.0 mg/kg/injection, schedule: Q01DX001 (ip), vehicle: carboxymethylcellulose (CMC)
[17] = dose: 200.0 mg/kg/injection, schedule: Q01DX001 (ip), vehicle: carboxymethylcellulose (CMC)
[18] = dose: 400.0 mg/kg/injection, schedule: Q01DX001 (ip), vehicle: carboxymethylcellulose (CMC)
[19] = dose: 100.0 mg/kg/injection, schedule: Q04DX003 (ip), vehicle: saline
[20] = dose: 200.0 mg/kg/injection, schedule: Q04DX003 (ip), vehicle: saline
[21] = dose: 400.0 mg/kg/injection, schedule: Q01DX009 (ip), vehicle: saline
[22] = dose: 400.0 mg/kg/injection, schedule: Q04DX003 (ip), vehicle: saline
[23] = dose: 50.0 mg/kg/injection, schedule: Q01DX009 (ip), vehicle: Klucel (hydroxypropylcellulose) (HPC)

Measured: T/C

CCOc1ccc(NC(=O)C=O)cc1
inactive: [1] 92 % of control | [2] 94 % of control | [3] 103 % of control | [4] 94 % of control | [5] 105 % of control | [6] 97 % of control

CCCCCCN(CCCCCC)CCC(=O)c1ccc2cc(Br)c3ccccc3c2c1
inactive: dose: 13.3 mg/kg/injection, schedule: Q01DX Z (ip), vehicle: methylcellulose (MC) 92 % of control | dose: 20.0 mg/kg/injection, schedule: Q01DX Z (ip), vehicle: methylcellulose (MC) 86 % of control | dose: 30.0 mg/kg/injection, schedule: Q01DX Z (ip), vehicle: methylcellulose (MC) 92 % of control

CC1(c2ccccc2)CC(c2ccccc2)=C(C#N)C(=O)N1 (centres undefined)
inactive: [7] 98 % of control | [8] 91 % of control | [9] 104 % of control

CCN(C(=O)c1ccc([N+](=O)[O-])cc1)C(c1ccccc1)P(=O)(c1ccccc1)c1ccccc1 (centres undefined)
inactive: dose: 100.0 mg/kg/injection, schedule: Q04DX002 (ip), vehicle: saline with Tween-80 89 % of control | dose: 200.0 mg/kg/injection, schedule: Q01DX009 (ip), vehicle: saline with Tween-80 95 % of control | dose: 400.0 mg/kg/injection, schedule: Q04DX002 (ip), vehicle: saline with Tween-80 88 % of control

CC(C)C(C)/C=C\C(C)C1CCC2C3=CCC4CC(O)CCC4(C)C3CCC21C (centres undefined)
inactive: [10] 97 % of control | [11] 97 % of control | dose: 400.0 mg/kg/injection, schedule: Q01DX001 (ip), vehicle: Klucel (hydroxypropylcellulose) (HPC) 97 % of control

NC(=O)c1ncc(-c2ccccc2)[nH]c1=O
inactive: [12] 105 % of control | [13] 92 % of control

O=C(OC(c1ccccc1)c1ccccc1)C(CSC(c1ccccc1)(c1ccccc1)c1ccccc1)NC(c1ccccc1)(c1ccccc1)c1ccccc1 (centres undefined)
inactive: [2] 91 % of control | [4] 92 % of control

N/C(=N\OC(=O)c1ccccc1)c1ccccc1
inactive: dose: 50.0 mg/kg/injection, schedule: Q04DX002 (ip), vehicle: Klucel (hydroxypropylcellulose) (HPC) 96 % of control | [14] 104 % of control | [15] 93 % of control

Nc1cccc2cn[nH]c12
inactive: dose: 100.0 mg/kg/injection, schedule: Q01DX009 (ip), vehicle: other 104 % of control | dose: 200.0 mg/kg/injection, schedule: Q01DX009 (ip), vehicle: other 112 % of control

S=P(NCCCCCCCCNP(=S)(N1CC1)N1CC1)(N1CC1)N1CC1
inactive: [16] 102 % of control | [17] 119 % of control | [18] 107 % of control

CC(=O)Nc1ccn(CC(=O)c2cccs2)c(=O)n1
inactive: [12] 96 % of control | [19] 95 % of control | [13] 94 % of control | [20] 101 % of control | [21] 89 % of control | [22] 110 % of control

O=C(COc1cc(Cl)c(Cl)cc1Cl)NO
inactive: [23] 98 % of control | [1] 104 % of control | [2] 101 % of control | [3] 112 % of control | [4] 101 % of control

O=C(Nc1ccc(Cl)cc1)Oc1ccc2ccccc2c1
inactive: [19] 103 % of control | [20] 92 % of control | [22] 97 % of control

CC1(C)C/C(=C\c2ccccc2)C(=O)c2ccccc21
inactive: dose: 100.0 mg/kg/injection, schedule: Q04DX003 (ip), vehicle: saline with Tween-80 107 % of control | dose: 200.0 mg/kg/injection, schedule: Q04DX003 (ip), vehicle: saline with Tween-80 96 % of control | dose: 400.0 mg/kg/injection, schedule: Q04DX003 (ip), vehicle: saline with Tween-80 96 % of control

O=C(O)C1CCCC2C(O)CCC(=O)C12 (centres undefined)
inactive: [7] 95 % of control and 107 % of control | dose: 100.0 mg/kg/injection, schedule: Q01DX009 (ip), vehicle: saline sonified 98 % of control | dose: 100.0 mg/kg/injection, schedule: Q04DX003 (ip), vehicle: saline sonified 100 % of control | [8] 104 % of control and 101 % of control | dose: 200.0 mg/kg/injection, schedule: Q01DX009 (ip), vehicle: saline sonified 102 % of control | dose: 200.0 mg/kg/injection, schedule: Q04DX003 (ip), vehicle: saline sonified 92 % of control | [9] 107 % of control and 96 % of control | dose: 400.0 mg/kg/injection, schedule: Q01DX009 (ip), vehicle: saline sonified 93 % of control | dose: 400.0 mg/kg/injection, schedule: Q04DX003 (ip), vehicle: saline sonified 95 % of control

O=[N+]([O-])c1ccccc1CC1c2ccccc2-c2ccccc21
inactive: [19] 96 % of control | [20] 94 % of control | [22] 93 % of control

O=C(c1ccccc1)c1ccc(Br)s1
inactive: [2] 96 % of control | [4] 97 % of control | [6] 94 % of control

O=C(O)CS(=O)(=O)c1ccccc1
inactive: [19] 95 % of control | [20] 105 % of control

CSc1ccc([PH+](c2ccc(SC)cc2)c2ccc(SC)cc2)cc1.CSc1ccc([PH+](c2ccc(SC)cc2)c2ccc(SC)cc2)cc1.[Cl][Hg][Cl]
inactive: [23] 89 % of control | [1] 92 % of control and 98 % of control | [3] 94 % of control and 103 % of control

O=C1C(NC2CCCCC2)=C(c2ccccc2)c2ccccc21
inactive: dose: 50.0 mg/kg/injection, schedule: Q01DX001 (ip), vehicle: Klucel (hydroxypropylcellulose) (HPC) 94 % of control | [10] 92 % of control | [11] 94 % of control

Cc1cccc(C)c1NC(=O)Nc1ccc(C(=O)O)c(O)c1
inactive: [1] 110 % of control | [3] 95 % of control | [5] 97 % of control

COc1ccccc1NC(=O)NCc1cccc2ccccc12
inactive: [14] 107 % of control | [15] 104 % of control | dose: 400.0 mg/kg/injection, schedule: Q04DX002 (ip), vehicle: Klucel (hydroxypropylcellulose) (HPC) 100 % of control

Cc1cccc(C)c1N=C/C=C/c1ccccc1
inactive: [1] 100 % of control | [3] 88 % of control | [5] 102 % of control

CC(Cl)CN1c2ccccc2Sc2ccc(Cl)cc21 (centres undefined)
inactive: [16] 97 % of control | [17] 95 % of control | [18] 92 % of control

CC1(C)N=C(N)N=C(N)N1c1ccc(OCC(=O)N2CCOCC2)c(Cl)c1
inactive: dose: 12.5 mg/kg/injection, schedule: Q01DX009 (ip), vehicle: saline 98 % of control | dose: 25.0 mg/kg/injection, schedule: Q01DX009 (ip), vehicle: saline 98 % of control | dose: 50.0 mg/kg/injection, schedule: Q01DX009 (ip), vehicle: saline 95 % of control | [12] 101 % of control

CCOc1ccc([N+](=O)[O-])cc1C1N(Cc2ccc(OC)cc2)CCCN1Cc1ccc(OC)cc1
inactive: dose: 100.0 mg/kg/injection, schedule: Q01DX001 (ip), vehicle: acetone 100 % of control | dose: 200.0 mg/kg/injection, schedule: Q01DX001 (ip), vehicle: acetone 94 % of control | dose: 400.0 mg/kg/injection, schedule: Q01DX001 (ip), vehicle: acetone 94 % of control

O=C(/C(=N/OCc1ccccc1)c1ccccc1)c1ccccc1
inactive: [7] 102 % of control | [8] 102 % of control | [9] 98 % of control

Cc1ccc(S(=O)(=O)N2CCC(Br)C(=O)c3ccccc32)cc1 (centres undefined)
inactive: [7] 94 % of control | [12] 107 % of control | [8] 107 % of control | [13] 109 % of control | [9] 100 % of control | [21] 97 % of control

CC[C@H](CC[C@@H](C)[C@H]1CC[C@H]2[C@@H]3CC[C@H]4C[C@@H](O)CC[C@]4(C)[C@H]3CC[C@]12C)C(C)C
inactive: dose: 100.0 mg/kg/injection, schedule: Q01DX001 (ip), vehicle: water 90 % of control | dose: 200.0 mg/kg/injection, schedule: Q01DX001 (ip), vehicle: water 91 % of control | dose: 400.0 mg/kg/injection, schedule: Q01DX001 (ip), vehicle: water 93 % of control

CC(C)(C)NC(=O)Nc1cccc(C(=O)O)c1
inactive: [1] 97 % of control | [3] 109 % of control | [5] 101 % of control
